Reference: paper PMC12133300, “The C-terminal structure of the N^6-methyladenosine deaminase YerA and its role in deamination” (Biochemical Journal, 2025)

Experiments:
YerA (Bsu06560) [1] = molecular target: T1, YerA (Bsu06560) (Bacillus subtilis, UniProt O34909); assay: thermal shift assay (SYPRO Orange); type: binding; details: apo-YerA (without metal reconstitution) 15 uM, 3 mM ligand
T1 construct: full-length (Met1-Arg580), pET-28a(+), E. coli BL21(DE3), N-terminal His-tag cleaved by PreScission protease; monomer; assayed as apo or metal-reconstituted form
T1 sequence (O34909 whole entry): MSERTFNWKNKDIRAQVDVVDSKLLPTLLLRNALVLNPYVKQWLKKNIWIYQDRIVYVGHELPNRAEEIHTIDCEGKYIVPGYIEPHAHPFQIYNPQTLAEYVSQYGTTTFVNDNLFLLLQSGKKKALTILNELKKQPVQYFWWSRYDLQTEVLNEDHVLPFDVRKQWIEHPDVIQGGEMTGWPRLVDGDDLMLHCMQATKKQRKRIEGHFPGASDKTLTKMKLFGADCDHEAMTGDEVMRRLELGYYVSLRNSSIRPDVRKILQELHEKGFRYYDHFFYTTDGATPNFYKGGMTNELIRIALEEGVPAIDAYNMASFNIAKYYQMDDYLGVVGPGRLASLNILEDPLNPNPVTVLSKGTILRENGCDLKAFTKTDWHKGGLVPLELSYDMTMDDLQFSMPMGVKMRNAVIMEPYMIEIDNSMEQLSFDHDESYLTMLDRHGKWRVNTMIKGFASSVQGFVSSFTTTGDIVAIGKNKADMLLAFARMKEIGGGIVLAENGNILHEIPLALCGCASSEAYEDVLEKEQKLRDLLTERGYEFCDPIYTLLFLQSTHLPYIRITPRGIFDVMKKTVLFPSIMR

YerA (Bsu06560) [2] = molecular target: T1, YerA (Bsu06560); assay: LC-Q-TOF-MS detection of inosine product; type: biochemical; details: metal-reconstituted holoenzyme, 5 h, 37 °C, 5 mM ligand; apo form without reconstitution inactive

Tm shift (YerA (Bsu06560) [1]): 3 °C
SMILES: CNc1ncnc2c1ncn2[C@@H]1O[C@H](CO)[C@@H](O)[C@H]1O [N^6-mAdo, N^6-methyladenosine]
LC-Q-TOF-MS detection of inosine product (YerA (Bsu06560) [2]): YerA deaminated the favored substrate N^6-mAdo to Ino after a 5-h reaction
